Seven compounds from patent publication US20010027216A1, “Method for preventing hormone induced adverse effects” (priority 2000, published 2001) can be followed below.

Entries after “also recorded” stand apart in the source; their conditions may differ.

Holding throughout (assay type): cell-based, human
Experiment [1] deals with ECC-1 endometrial cancer cells. The experiment can be described thus: ECC-1 cell proliferation, [3H]thymidine incorporation into DNA. The settings on record: for cell proliferation rate (cpm): concentration range 0.01 to 4 μM (FIG. 1 panel A); for effect on endometrial cancer cell growth over increasing concentrations: three days. How it is done: Cells were cultured in DMEM containing penicillin (100 U/ml), streptomycin (0.1 mg/ml)) nystatin (12.5 (g/ml), insulin (0.6 (g/ml), and 10% FCS. Cells were stripped of endogenous steroids according to the procedure of Vignon et al. (1987, Biochem. Biophys. Res. Comm., 146:1502-8) by successive passages in medium without phenol red containing 10% and then 3% of charcoal-stripped FCS. Cells were seeded into 96 multiwell plates (5,000 cells per well) in DMEM containing 3% of charcoal-stripped FCS. After one day the medium was changed to one containing the solubilized carotenoid or THF alone. The medium was changed daily to ensure a continuous supply of carotenoid. After incubation, the number of cells and the rate of cell proliferation were estimated by the incorporation of [^3H]thymidine incorporation into cellular DNA, as described in U.S. Pat. No. 5,827,900. Cell growth was also measured by direct cell counting with a Coulter counter after trypsinization and dilution in Isotone-II (Coulter Electronics, Luton, England). A good correlation was found between the two methods. ECC-1 cells were incubated with increasing concentrations of the isoflavones genistein and daidzein, the two primary isoflavones in soy products, and with soy extract. Cell proliferation after three days was measured by [^3H]thymidine incorporation into DNA (FIG. 1, panel A). […] ECC-1 cells were also incubated with a single high concentration (40 μM) of each of genistein, daidzein and soy extract. Cell proliferation was assayed daily over the course of three days.
Background: Incorporation of labelled thymidine or its analogues reports DNA synthesis.

The subject of experiment [2] is MDA-231 mammary cancer cells. As to the kind of experiment: MDA-231 cell proliferation, [3H]thymidine incorporation. How it is done:
(§1) Cells were cultured in DMEM containing penicillin (100 U/ml), streptomycin (0.1 mg/ml)) nystatin (12.5 (g/ml), insulin (0.6 (g/ml), and 10% FCS. Cells were stripped of endogenous steroids according to the procedure of Vignon et al. (1987, Biochem. Biophys. Res. Comm., 146:1502-8) by successive passages in medium without phenol red containing 10% and then 3% of charcoal-stripped FCS. Cells were seeded into 96 multiwell plates (5,000 cells per well) in DMEM containing 3% of charcoal-stripped FCS. After one day the medium was changed to one containing the solubilized carotenoid or THF alone. The medium was changed daily to ensure a continuous supply of carotenoid.
(§2) After incubation, the number of cells and the rate of cell proliferation were estimated by the incorporation of [^3H]thymidine incorporation into cellular DNA, as described in U.S. Pat. No. 5,827,900. Cell growth was also measured by direct cell counting with a Coulter counter after trypsinization and dilution in Isotone-II (Coulter Electronics, Luton, England). A good correlation was found between the two methods.
Thus genistein not only stimulates hormone-dependent cancer cell proliferation, but IGF-I as well as other growth factors further augment this effect.

Experiment [3] has as its system MCF-7 mammary cancer cells. The experiment can be described thus: MCF-7 cell proliferation, [3H]thymidine incorporation. The settings on record: for phytoestrogen-induced cell proliferation: genistein 4 μM. How it is done:
as §1, §2
The comparative effects of estradiol and genistein supplementation on the proliferation of the hormone-dependent cell lines MCF-7 mammary cancer and ECC-1 endometrial cancer were examined (FIG. 2).
MCF-7 mammary cancer cells were stimulated by genistein (4 μM) and test cultures were additionally supplemented with lycopene or phytoene or a combination of both, at either physiological concentrations (FIG. 6, panel A) or at about one order of magnitude greater than the physiological concentrations (FIG. 6, panel B).

[4] abbreviates: lycopene 3 to 5 μM, three days in culture.
Setting [5] is: stimulated by estradiol at 10 nM (FIG. 4).
The mark [6] stands for this setting: stimulated by genistein at 1 μM (FIG. 4).
The mark [7] stands for this setting: lycopene 3 to 5 μM, IGF-1 30 nM.
[8] abbreviates: high, non-physiological concentrations of the individual carotenoids (FIG. 6, panel B).
[9] abbreviates: 40 μM, after one day of incubation (FIG. 1, panel B).
Where [10] appears, read: 0.4 and 4 μM, after three days (FIG. 1, panel A).

As for `CC(C)=CCC/C(C)=C/C=C/C(C)=C/C=C/C(C)=C/C=C/C=C(C)/C=C/C=C(C)/C=C/C=C(\C)CCC=C(C)C` [lycopene], the estradiol-induced cell proliferation result is given as “all lycopene concentrations tested were effective in inhibiting” in experiment [1] (estradiol 10 nM, various concentrations of lycopene, lowest 0.9 μM (FIG. 5)) and “effectively inhibited” in experiment [1] (setting [5]). Besides, the genistein-induced cell proliferation result in experiment [1] (genistein 1 μM, various concentrations of lycopene, lowest 0.9 μM (FIG. 5)) is “all lycopene concentrations tested were effective in inhibiting”; in experiment [1] (setting [6]), “effective inhibitors; also recorded: effectively inhibited”. Besides, the basal growth result in experiment [1] (setting [4]) and in experiment [3] (setting [4]) was “significantly inhibited” throughout. Further, the “estrogen-induced (either genistein or estradiol) growth” value in experiment [1] (setting [4]) and in experiment [3] (setting [4]) was “substantially inhibited; also recorded: significantly inhibited” in each case. The “IGF stimulation of cell growth” value in experiment [2] (setting [7]) and in experiment [3] (setting [7]) was “inhibits IGF stimulation” each time. For the same compound, the “cell proliferation compared with controls” value in experiment [2] (setting [7]) is on record as “reduced to levels less than that of controls”. For the same compound, the phytoestrogen-induced cell proliferation result in experiment [3] (setting [8]) was “effective in significantly inhibiting”; in experiment [3] (low (physiological) concentration: lycopene 0.4 μM, mixture of phytoene and phytofluene 6 μM (FIG. 6, panel A)), “do not significantly affect”.
In the case of `CC(C)=CCC/C(C)=C/CC/C(C)=C/CC/C(C)=C/C=C/C=C(\C)CC/C=C(\C)CC/C=C(\C)CCC=C(C)C` [phytoene], the genistein-induced cell proliferation result in experiment [1] (setting [6]) is “effective inhibitors”. In addition, the phytoestrogen-induced cell proliferation entry in experiment [3] (setting [8]) is “effective in significantly inhibiting”.
For the compound “IGF-1: Human recombinant IGF-1 purchased from GroPep”, the cell growth entry in experiment [2] (IGF-1 30 nM (FIG. 3, panel B)) is “significantly stimulates cell growth”; in experiment [3] (IGF-1 30 nM (FIG. 3, panel A)), “significantly stimulates cell growth”.
As for `O=c1c(-c2ccc(O)cc2)coc2cc(O)cc(O)c12` [genistein, reference compound], the cell proliferation result in experiment [1] (setting [9]) is given as “significantly increases cell proliferation; also recorded: stimulated cell proliferation”; in experiment [1] (40 μM, second day in culture (FIG. 1, panel B)), “inhibitory effects”; in experiment [1] (setting [10]) it was “stimulated cell proliferation”; in experiment [1] (higher, non-physiological concentrations (10 μM), after three days in culture (FIG. 1, panel A)), “inhibited cell proliferation”. Moreover, the “cell proliferation rate (cpm)” value in experiment [1] is “significant increase in cell proliferation rate”. The “effect on endometrial cancer cell growth over increasing concentrations” value in experiment [1] is “biphasic effects on proliferation, stimulating at low concentrations and inhibiting at high concentrations”. In experiment [2] (FIG. 3, panel B), the “stimulation of cell growth by genistein” value is recorded as “not by genistein”. Besides, in experiment [3] (increasing concentrations (FIG. 2, panel A)), the “effect on proliferation over increasing concentrations” value is “biphasic effects on proliferation, stimulating at low concentrations and inhibiting at high concentrations”. Further, in experiment [3] (with IGF-1 30 nM (FIG. 3, panel A)), the “stimulatory effect of genistein in the presence of IGF-I” value was “further augmented”.
In the case of `CC1=C(/C=C/C(C)=C/C=C/C(C)=C/C=C/C=C(C)/C=C/C=C(C)/C=C/C2=C(C)C(=O)[C@@H](O)CC2(C)C)C(C)(C)C[C@H](O)C1=O` [astaxanthin], the estradiol-induced cell proliferation result in experiment [1] (setting [5]) is “effectively inhibited”. Besides, the genistein-induced cell proliferation entry in experiment [1] (setting [6]) is given as “effective inhibitors; also recorded: effectively inhibited”.
As to `O=c1c(-c2ccc(O)cc2)coc2cc(O)ccc12` [daidzein, reference compound], the cell proliferation result in experiment [1] (setting [9]) is given as “significantly increases cell proliferation; also recorded: stimulated cell proliferation”. Moreover, the cell proliferation entry in experiment [1] (setting [10]) is listed as “stimulated cell proliferation”. In addition, in experiment [1], the “cell proliferation rate (cpm)” value is reported as “significant increase in cell proliferation rate” and the “effect on endometrial cancer cell growth over increasing concentrations” value was “only stimulatory”.
For the compound `CC1=C(/C=C/C(C)=C/C=C/C(C)=C/C=C/C=C(C)/C=C/C=C(C)/C=C/C2=C(C)CCCC2(C)C)C(C)(C)CCC1` [beta-carotene], the estradiol-induced cell proliferation result in experiment [1] (setting [5]) is reported as “effectively inhibited”. Also, the genistein-induced cell proliferation result in experiment [1] (setting [6]) is reported as “effective inhibitors; also recorded: effectively inhibited”.
